Test results from ChEMBL document CHEMBL3045656, “Is the application of carbendazim harmful to healthy plants? Evidence of weak phytotoxicity in tobacco” (J Agric Food Chem, 2002).

What was measured:
Type in all cases: organism-based
Nicotiana tabacum [1] = assay: Toxicity in Nicotiana tabacum (tobacco) leaves assessed as calcium level per gram of dry weight per leaf at 5.2 mM treated 3 times in 2 weeks measured prior to onset of flowering relative to control; conditions: in vivo, 336 h, 5200 µM
Nicotiana tabacum [2] = assay: Toxicity in Nicotiana tabacum (tobacco) leaves assessed as calcium level per gram of dry weight per leaf at 2.6 mM treated 3 times in 2 weeks measured prior to onset of flowering relative to control; conditions: in vivo, 336 h, 2600 µM
Nicotiana tabacum [3] = assay: Toxicity in Nicotiana tabacum (tobacco) leaves assessed as calcium level per gram of dry weight per leaf at 1.3 mM treated 3 times in 2 weeks measured prior to onset of flowering relative to control; conditions: in vivo, 336 h, 1300 µM
Nicotiana tabacum [4] = assay: Toxicity in Nicotiana tabacum (tobacco) leaves assessed as potassium level per gram of dry weight per leaf at 5.2 mM treated 3 times in 2 weeks measured prior to onset of flowering relative to control; conditions: in vivo, 336 h, 5200 µM
Nicotiana tabacum [5] = assay: Toxicity in Nicotiana tabacum (tobacco) leaves assessed as potassium level per gram of dry weight per leaf at 2.6 mM treated 3 times in 2 weeks measured prior to onset of flowering relative to control; conditions: in vivo, 336 h, 2600 µM
Nicotiana tabacum [6] = assay: Toxicity in Nicotiana tabacum (tobacco) leaves assessed as potassium level per gram of dry weight per leaf at 1.3 mM treated 3 times in 2 weeks measured prior to onset of flowering relative to control; conditions: in vivo, 336 h, 1300 µM
Nicotiana tabacum [7] = assay: Toxicity in Nicotiana tabacum (tobacco) leaves assessed as phosphorus level per gram of dry weight per leaf at 5.2 mM treated 3 times in 2 weeks measured prior to onset of flowering relative to control; conditions: in vivo, 336 h, 5200 µM
Nicotiana tabacum [8] = assay: Toxicity in Nicotiana tabacum (tobacco) leaves assessed as phosphorus level per gram of dry weight per leaf at 2.6 mM treated 3 times in 2 weeks measured prior to onset of flowering relative to control; conditions: in vivo, 336 h, 2600 µM
Nicotiana tabacum [9] = assay: Toxicity in Nicotiana tabacum (tobacco) leaves assessed as phosphorus level per gram of dry weight per leaf at 1.3 mM treated 3 times in 2 weeks measured prior to onset of flowering relative to control; conditions: in vivo, 336 h, 1300 µM
Nicotiana tabacum [10] = assay: Toxicity in Nicotiana tabacum (tobacco) leaves assessed as nitrogen level per gram of dry weight per leaf at 5.2 mM treated 3 times in 2 weeks measured prior to onset of flowering relative to control; conditions: in vivo, 336 h, 5200 µM
Nicotiana tabacum [11] = assay: Toxicity in Nicotiana tabacum (tobacco) leaves assessed as nitrogen level per gram of dry weight per leaf at 2.6 mM treated 3 times in 2 weeks measured prior to onset of flowering relative to control; conditions: in vivo, 336 h, 2600 µM
Nicotiana tabacum [12] = assay: Toxicity in Nicotiana tabacum (tobacco) leaves assessed as nitrogen level per gram of dry weight per leaf at 1.3 mM treated 3 times in 2 weeks measured prior to onset of flowering relative to control; conditions: in vivo, 336 h, 1300 µM
Nicotiana tabacum [13] = assay: Toxicity in Nicotiana tabacum (tobacco) leaves assessed as effect on carotenoids level at 5.2 mM treated 3 times in 2 weeks measured prior to onset of flowering relative to control; conditions: in vivo, 336 h, 5200 µM
Nicotiana tabacum [14] = assay: Toxicity in Nicotiana tabacum (tobacco) leaves assessed as effect on carotenoids level at 2.6 mM treated 3 times in 2 weeks measured prior to onset of flowering relative to control; conditions: in vivo, 336 h, 2600 µM
Nicotiana tabacum [15] = assay: Toxicity in Nicotiana tabacum (tobacco) leaves assessed as effect on carotenoids level at 1.3 mM treated 3 times in 2 weeks measured prior to onset of flowering relative to control; conditions: in vivo, 336 h, 1300 µM
Nicotiana tabacum [16] = assay: Toxicity in Nicotiana tabacum (tobacco) leaves assessed as effect on chlorophyll-b level at 5.2 mM treated 3 times in 2 weeks measured prior to onset of flowering relative to control; conditions: in vivo, 336 h, 5200 µM
Nicotiana tabacum [17] = assay: Toxicity in Nicotiana tabacum (tobacco) leaves assessed as effect on chlorophyll-b level at 2.6 mM treated 3 times in 2 weeks measured prior to onset of flowering relative to control; conditions: in vivo, 336 h, 2600 µM
Nicotiana tabacum [18] = assay: Toxicity in Nicotiana tabacum (tobacco) leaves assessed as effect on chlorophyll-b level at 1.3 mM treated 3 times in 2 weeks measured prior to onset of flowering relative to control; conditions: in vivo, 336 h, 1300 µM
Nicotiana tabacum [19] = assay: Toxicity in Nicotiana tabacum (tobacco) leaves assessed as effect on chlorophyll-a level at 5.2 mM treated 3 times in 2 weeks measured prior to onset of flowering relative to control; conditions: in vivo, 336 h, 5200 µM
Nicotiana tabacum [20] = assay: Toxicity in Nicotiana tabacum (tobacco) leaves assessed as effect on chlorophyll-a level at 2.6 mM treated 3 times in 2 weeks measured prior to onset of flowering relative to control; conditions: in vivo, 336 h, 2600 µM
Nicotiana tabacum [21] = assay: Toxicity in Nicotiana tabacum (tobacco) leaves assessed as effect on chlorophyll-a level at 1.3 mM treated 3 times in 2 weeks measured prior to onset of flowering relative to control; conditions: in vivo, 336 h, 1300 µM
Nicotiana tabacum [22] = assay: Toxicity in Nicotiana tabacum (tobacco) leaves assessed as magnesium level per gram of dry weight per leaf at 5.2 mM treated 3 times in 2 weeks measured prior to onset of flowering relative to control; conditions: in vivo, 336 h, 5200 µM
Nicotiana tabacum [23] = assay: Toxicity in Nicotiana tabacum (tobacco) leaves assessed as magnesium level per gram of dry weight per leaf at 2.6 mM treated 3 times in 2 weeks measured prior to onset of flowering relative to control; conditions: in vivo, 336 h, 2600 µM
Nicotiana tabacum [24] = assay: Toxicity in Nicotiana tabacum (tobacco) leaves assessed as magnesium level per gram of dry weight per leaf at 1.3 mM treated 3 times in 2 weeks measured prior to onset of flowering relative to control; conditions: in vivo, 336 h, 1300 µM
Nicotiana tabacum [25] = assay: Toxicity in Nicotiana tabacum (tobacco) leaves assessed as reduction of dry weight at 5.2 mM treated 3 times in 2 weeks measured prior to onset of flowering relative to control; design: scale not given: the % may be the effect or the level left; conditions: in vivo, 336 h, 5200 µM
Nicotiana tabacum [26] = assay: Toxicity in Nicotiana tabacum (tobacco) leaves assessed as reduction of dry weight at 1.3 to 2.6 mM treated 3 times in 2 weeks measured prior to onset of flowering; conditions: in vivo, 336 h, 2600 µM

## COC(=O)Nc1nc2ccccc2[nH]1 [CARBENDAZIM]
Nicotiana tabacum [1]
  Activity: 10.1 mg
Nicotiana tabacum [2]
  Activity: 10.2 mg
Nicotiana tabacum [3]
  Activity: 10.5 mg
Nicotiana tabacum [4]
  Activity: 34.1 mg
Nicotiana tabacum [5]
  Activity: 35.4 mg
Nicotiana tabacum [6]
  Activity: 36.7 mg
Nicotiana tabacum [7]
  Activity: 8.47 mg
Nicotiana tabacum [8]
  Activity: 8.61 mg
Nicotiana tabacum [9]
  Activity: 9.73 mg
Nicotiana tabacum [10]
  Activity: 38.9 mg
Nicotiana tabacum [11]
  Activity: 41.6 mg
Nicotiana tabacum [12]
  Activity: 41.7 mg
Nicotiana tabacum [13]
  Activity: 3.9 microg/cm2
Nicotiana tabacum [14]
  Activity: 4.64 microg/cm2
Nicotiana tabacum [15]
  Activity: 4.8 microg/cm2
Nicotiana tabacum [16]
  Activity: 21.9 microg/cm2
Nicotiana tabacum [17]
  Activity: 24.98 microg/cm2
Nicotiana tabacum [18]
  Activity: 25.88 microg/cm2
Nicotiana tabacum [19]
  Activity: 54.14 microg/cm2
Nicotiana tabacum [20]
  Activity: 62.46 microg/cm2
Nicotiana tabacum [21]
  Activity: 66.82 microg/cm2
Nicotiana tabacum [22]
  Activity: 6.5 mg
Nicotiana tabacum [23]
  Activity: 6.7 mg
Nicotiana tabacum [24]
  Activity: 6.4 mg
Nicotiana tabacum [25]
  Activity: 17%
Nicotiana tabacum [26]
  Activity: Non-toxic
